# Test results taken from ChEMBL document CHEMBL2440112, “Structure-activity relationships of the aromatic site in novel anticonvulsant pyrrolo[1,2-a]pyrazine derivatives” (Bioorg Med Chem Lett, 2013).
# Activity calls are given as the source filed them. No cut-off for these calls is given here.
# Tests used:
# Rattus norvegicus [1] = assay: Neurotoxicity in albino Sprague-Dawley rat assessed as minimal motor impairment at 30 mg/kg, ip after 4 hrs by rotorod test; format: toxicity, organism-based; set-up: dose 30 mg/kg, route intraperitoneal; conditions: in vivo
# Rattus norvegicus [2] = assay: Anticonvulsant activity in albino Sprague-Dawley rat assessed as protection against maximal electroshock-induced seizures at 30 mg/kg, ip after 0.5 hrs; format: functional, organism-based; set-up: dose 30 mg/kg
# Mus musculus [3] = assay: Neurotoxicity in albino mouse assessed as minimal motor impairment at 100 mg/kg, ip after 1 hr by rotorod test; format: toxicity, organism-based; set-up: dose 100 mg/kg, route intraperitoneal; conditions: in vivo
# Rattus norvegicus [4] = assay: Anticonvulsant activity in albino Sprague-Dawley rat assessed as protection against maximal electroshock-induced seizures at 30 mg/kg, ip after 1 hr; format: functional, organism-based; set-up: dose 30 mg/kg
# Mus musculus [5] = assay: Anticonvulsant activity in albino mouse assessed as protection against maximal electroshock-induced seizures at 100 mg/kg, ip after 4 hrs; format: functional, organism-based; set-up: dose 100 mg/kg
# Mus musculus [6] = assay: Anticonvulsant activity in albino mouse assessed as protection against subcutaneous metrazole-induced seizures at 100 mg/kg, ip after 0.5 hrs; format: functional, organism-based; set-up: dose 100 mg/kg
# Mus musculus [7] = assay: Anticonvulsant activity in albino mouse assessed as protection against 6 Hz psychomotor seizure at 100 mg/kg, ip after 2 hrs by minimal clonic seizure test; format: functional, organism-based; set-up: dose 100 mg/kg
# Rattus norvegicus [8] = assay: Anticonvulsant activity in albino Sprague-Dawley rat pilocarpine-induced status prevention model by measuring post-first stage 3 seizure at 200 mg/kg, ip administered 30 mins before pilocarpine challenge; format: functional, organism-based; set-up: dose 200 mg/kg
# Rattus norvegicus [9] = assay: Neurotoxicity in albino Sprague-Dawley rat assessed as minimal motor impairment at 30 mg/kg, ip after 0.25 hrs by rotorod test; format: toxicity, organism-based; set-up: dose 30 mg/kg, route intraperitoneal; conditions: in vivo
# Rattus norvegicus [10] = assay: Anticonvulsant activity in albino Sprague-Dawley rat assessed as protection against maximal electroshock-induced seizures at 30 mg/kg, ip after 2 hrs; format: functional, organism-based; set-up: dose 30 mg/kg
# Mus musculus [11] = assay: Neurotoxicity in albino mouse assessed as minimal motor impairment at 100 mg/kg, ip after 0.25 hrs by rotorod test; format: toxicity, organism-based; set-up: dose 100 mg/kg, route intraperitoneal; conditions: in vivo
# Rattus norvegicus [12] = assay: Toxicity in albino Sprague-Dawley rat pilocarpine-induced status prevention model assessed as weight change in non-protected animal at 200 mg/kg, ip administered 30 mins before pilocarpine challenge; format: organism-based; set-up: dose 200 mg/kg, route intraperitoneal; conditions: in vivo, 0.5 h
# [13] = Neurotoxicity in ip dosed albino mouse minimal clonic seizure model assessed as minimal motor impairment by rotorod test; format: toxicity, organism-based; conditions: in vivo
# Mus musculus [14] = organism: Mus musculus; assay: Protective index, ratio of TD50 for albino mouse minimal clonic seizure model to ED50 for albino mouse assessed as protection against 6 Hz psychomotor seizure; format: functional
# Rattus norvegicus [15] = assay: Anticonvulsant activity in albino Sprague-Dawley rat assessed as protection against maximal electroshock-induced seizures at 30 mg/kg, ip after 0.25 hrs; format: functional, organism-based; set-up: dose 30 mg/kg
# Rattus norvegicus [16] = assay: Neurotoxicity in albino Sprague-Dawley rat assessed as minimal motor impairment at 30 mg/kg, ip after 2 hrs by rotorod test; format: toxicity, organism-based; set-up: dose 30 mg/kg, route intraperitoneal; conditions: in vivo
# Rattus norvegicus [17] = assay: Anticonvulsant activity in po dosed albino Sprague-Dawley rat assessed as protection against maximal electroshock-induced seizures after […] to 4 hrs; format: functional, organism-based
# Rattus norvegicus [18] = assay: Anticonvulsant activity in albino Sprague-Dawley rat pilocarpine-induced status prevention model by measuring post-first stage 3 seizure at 200 mg/kg, ip followed by immediately administered pilocarpine; format: functional, organism-based; set-up: dose 200 mg/kg
# Mus musculus [19] = assay: Anticonvulsant activity in albino mouse assessed as protection against subcutaneous metrazole-induced seizures at 100 mg/kg, ip after 4 hrs; format: functional, organism-based; set-up: dose 100 mg/kg
# Rattus norvegicus [20] = assay: Toxicity in albino Sprague-Dawley rat pilocarpine-induced status prevention model assessed as weight change in protected animal at 200 mg/kg, ip administered 30 mins before pilocarpine challenge; format: organism-based; set-up: dose 200 mg/kg, route intraperitoneal; conditions: in vivo, 0.5 h
# Mus musculus [21] = assay: Anticonvulsant activity in albino mouse assessed as protection against maximal electroshock-induced seizures at 100 mg/kg, ip after 0.5 hrs; format: functional, organism-based; set-up: dose 100 mg/kg
# Mus musculus [22] = assay: Neurotoxicity in albino mouse assessed as minimal motor impairment at 100 mg/kg, ip after 4 hrs by rotorod test; format: toxicity, organism-based; set-up: dose 100 mg/kg, route intraperitoneal; conditions: in vivo
# Mus musculus [23] = assay: Anticonvulsant activity in albino mouse assessed as protection against 6 Hz psychomotor seizure at 100 mg/kg, ip after 0.25 hrs by minimal clonic seizure test; format: functional, organism-based; set-up: dose 100 mg/kg
# Mus musculus [24] = assay: Anticonvulsant activity in albino mouse assessed as protection against maximal electroshock-induced seizures at 100 mg/kg, ip after 1 hr; format: functional, organism-based; set-up: dose 100 mg/kg
# Mus musculus [25] = assay: Anticonvulsant activity in albino mouse assessed as protection against maximal electroshock-induced seizures at 100 mg/kg, ip after 0.25 hrs; format: functional, organism-based; set-up: dose 100 mg/kg
# Rattus norvegicus [26] = assay: Neurotoxicity in albino Sprague-Dawley rat assessed as minimal motor impairment at 30 mg/kg, ip after 0.5 hrs by rotorod test; format: toxicity, organism-based; set-up: dose 30 mg/kg, route intraperitoneal; conditions: in vivo
# Mus musculus [27] = assay: Anticonvulsant activity in ip dosed albino mouse assessed as time of peak effect for protection against 6 Hz psychomotor seizure by minimal clonic seizure test; format: functional
# Mus musculus [28] = assay: Neurotoxicity in albino mouse assessed as minimal motor impairment at 100 mg/kg, ip after 0.5 hrs by rotorod test; format: toxicity, organism-based; set-up: dose 100 mg/kg, route intraperitoneal; conditions: in vivo
# Mus musculus [29] = assay: Anticonvulsant activity in albino mouse assessed as protection against 6 Hz psychomotor seizure at 100 mg/kg, ip after 4 hrs by minimal clonic seizure test; format: functional, organism-based; set-up: dose 100 mg/kg
# Rattus norvegicus [30] = assay: Anticonvulsant activity in albino Sprague-Dawley rat assessed as protection against maximal electroshock-induced seizures at 30 mg/kg, ip after 4 hrs; format: functional, organism-based; set-up: dose 30 mg/kg
# Rattus norvegicus [31] = assay: Toxicity in albino Sprague-Dawley rat pilocarpine-induced status prevention model assessed as weight change in non-protected animal at 200 mg/kg, ip followed by immediately administered pilocarpine; format: organism-based; set-up: dose 200 mg/kg, route intraperitoneal; conditions: in vivo
# Mus musculus [32] = assay: Anticonvulsant activity in albino mouse assessed as protection against 6 Hz psychomotor seizure at 100 mg/kg, ip after 0.5 hrs by minimal clonic seizure test; format: functional, organism-based; set-up: dose 100 mg/kg
# Mus musculus [33] = assay: Anticonvulsant activity in albino mouse assessed as protection against 6 Hz psychomotor seizure at 100 mg/kg, ip after 1 hr by minimal clonic seizure test; format: functional, organism-based; set-up: dose 100 mg/kg
# Rattus norvegicus [34] = assay: Neurotoxicity in albino Sprague-Dawley rat assessed as minimal motor impairment at 30 mg/kg, ip after 1 hr by rotorod test; format: toxicity, organism-based; set-up: dose 30 mg/kg, route intraperitoneal; conditions: in vivo
# Rattus norvegicus [35] = assay: Toxicity in albino Sprague-Dawley rat pilocarpine-induced status prevention model assessed as weight change in protected animal at 200 mg/kg, ip followed by immediately administered pilocarpine; format: organism-based; set-up: dose 200 mg/kg, route intraperitoneal; conditions: in vivo
# Mus musculus [36] = assay: Anticonvulsant activity in ip dosed albino mouse assessed as protection against 6 Hz psychomotor seizure by minimal clonic seizure test; format: functional
# Mus musculus [37] = assay: Neurotoxicity in albino mouse minimal clonic seizure model assessed as minimal motor impairment at 100 mg/kg, ip after 2 hrs by rotorod test; format: toxicity, organism-based; set-up: dose 100 mg/kg, route intraperitoneal; conditions: in vivo
# Mus musculus [38] = assay: Neurotoxicity in albino mouse assessed as loss of righting reflex at 100 mg/kg, ip after 0.25 hrs by rotorod test; format: toxicity, organism-based; set-up: dose 100 mg/kg, route intraperitoneal; conditions: in vivo
# Mus musculus [39] = assay: Toxicity in subcutaneous metrazole treated albino mouse assessed as myoclonic jerks at 100 mg/kg, ip after 0.25 hrs; format: organism-based; set-up: dose 100 mg/kg; conditions: in vivo, sc
# Mus musculus [40] = assay: Anticonvulsant activity in albino mouse assessed as protection against subcutaneous metrazole-induced seizures at 100 mg/kg, ip after 1 hr; format: functional, organism-based; set-up: dose 100 mg/kg
# Mus musculus [41] = assay: Neurotoxicity in albino mouse minimal clonic seizure model assessed as minimal motor impairment at 100 mg/kg, ip after 4 hrs by rotorod test; format: toxicity, organism-based; set-up: dose 100 mg/kg, route intraperitoneal; conditions: in vivo
# Mus musculus [42] = assay: Neurotoxicity in albino mouse minimal clonic seizure model assessed as minimal motor impairment at 100 mg/kg, ip after 1 hr by rotorod test; format: toxicity, organism-based; set-up: dose 100 mg/kg, route intraperitoneal; conditions: in vivo
# Mus musculus [43] = assay: Neurotoxicity in albino mouse minimal clonic seizure model assessed as minimal motor impairment at 100 mg/kg, ip after 0.5 hrs by rotorod test; format: toxicity, organism-based; set-up: dose 100 mg/kg, route intraperitoneal; conditions: in vivo
# Mus musculus [44] = assay: Neurotoxicity in albino mouse minimal clonic seizure model assessed as minimal motor impairment at 100 mg/kg, ip after 0.25 hrs by rotorod test; format: toxicity, organism-based; set-up: dose 100 mg/kg, route intraperitoneal; conditions: in vivo
# Mus musculus [45] = assay: Toxicity in subcutaneous metrazole treated albino mouse assessed as myoclonic jerks at 100 mg/kg, ip after 0.5 hrs; format: organism-based; set-up: dose 100 mg/kg; conditions: in vivo, sc
# Mus musculus [46] = assay: Anticonvulsant activity in albino mouse assessed as protection against subcutaneous metrazole-induced seizures at 100 mg/kg, ip after 0.25 hrs; format: functional, organism-based; set-up: dose 100 mg/kg
# Mus musculus [47] = assay: Neurotoxicity in albino mouse minimal clonic seizure model assessed as loss of righting reflex at 100 mg/kg, ip after 0.25 hrs by rotorod test; format: toxicity, organism-based; set-up: dose 100 mg/kg, route intraperitoneal; conditions: in vivo
SMILES,Activity (Mus musculus [3]),Activity (Mus musculus [5]),Activity (Mus musculus [6]),Activity (Mus musculus [7]),Activity (Mus musculus [11]),Activity (Rattus norvegicus [17]),Activity (Mus musculus [19]),Activity (Mus musculus [21]),Activity (Mus musculus [22]),Activity (Mus musculus [23]),Activity (Mus musculus [24]),Activity (Mus musculus [25]),Activity (Mus musculus [28]),Activity (Mus musculus [29]),Activity (Mus musculus [32]),Activity (Mus musculus [33]),Activity (Mus musculus [37]),Activity (Mus musculus [40]),Activity (Mus musculus [41]),Activity (Mus musculus [42]),further results
O=C1NC(=O)[C@@H]2CCCN2[C@H]1c1ccc(Cl)cc1,Non-toxic,inactive,inactive,Active,Non-toxic,inactive,inactive,inactive,Non-toxic,Active,inactive,Active,Non-toxic,inactive,Active,Active,,,,,Activity (Rattus norvegicus [1]): Non-toxic; Activity (Rattus norvegicus [2]): Active; Activity (Rattus norvegicus [4]): inactive; Activity (Rattus norvegicus [8]): inactive; Activity (Rattus norvegicus [9]): Non-toxic; Activity (Rattus norvegicus [10]): inactive; Activity (Rattus norvegicus [12]): -31.4 g; TD50 [13]: 212 mg/kg; Ratio TD50/ED50 (Mus musculus [14]): 6.6; Activity (Rattus norvegicus [15]): Active; Activity (Rattus norvegicus [16]): Non-toxic; Activity (Rattus norvegicus [18]): Active; Activity (Rattus norvegicus [20]): -30 g; Activity (Rattus norvegicus [26]): Non-toxic; Time (Mus musculus [27]): 0.25 h; Activity (Rattus norvegicus [30]): inactive; Activity (Rattus norvegicus [31]): 15 g; Activity (Rattus norvegicus [34]): Non-toxic; Activity (Rattus norvegicus [35]): -3.6 g; ED50 (Mus musculus [36]): 32.2 mg/kg
Cc1ccccc1[C@H]1C(=O)NC(=O)[C@@H]2CCCN12,Non-toxic,inactive,inactive,inactive,,inactive,inactive,inactive,Non-toxic,Active,inactive,inactive,Non-toxic,inactive,Active,Active,Non-toxic,inactive,Non-toxic,Non-toxic,Activity (Mus musculus [38]): Toxic; Activity (Mus musculus [39]): Toxic; Activity (Mus musculus [43]): Non-toxic; Activity (Mus musculus [44]): Non-toxic
O=C1NC(=O)[C@@H]2CCCN2[C@H]1c1ccc(Cl)c(Cl)c1,Non-toxic,inactive,Active,,Non-toxic,inactive,inactive,inactive,Non-toxic,,inactive,inactive,Non-toxic,,,,,,,,Activity (Mus musculus [45]): Toxic
O=C1NC(=O)[C@@H]2CCCN2[C@H]1c1cccc(Cl)c1,Non-toxic,inactive,inactive,inactive,Toxic,inactive,inactive,Active,Non-toxic,Active,Active,Active,Non-toxic,inactive,Active,Active,Non-toxic,inactive,Non-toxic,Non-toxic,Activity (Mus musculus [46]): Active; Activity (Mus musculus [43]): Toxic; Activity (Mus musculus [47]): Toxic; Activity (Mus musculus [44]): Toxic
